Source: patent publication EP0247723A2, “Compositions and methods for treating allergic conjuctivitis” (MERCK FROSST CANADA INC., priority 1986, dated 1987)
Marks after values point to notes of the source that are not given here.

System: ANTIGEN-INDUCED VASCULAR PERMEABILITY CHANGES IN GUINEA-PIG CONJUNCTIVA
Assay: Inhibition of antigen-induced ocular inflammation (vascular permeability, extravasation of [99mTc]-human serum albumin into the conjunctiva)
Format: in vivo
Details: ovalbumin-sensitized guinea-pigs
Procedure: Guinea-pigs were actively sensitized to produce IgG1 and IgE antibodies to ovalbumin (2 weeks). Animals were then challenged topically in the eyes (10 µl of 2.5% w/v ovalbumin per eye) followed by intravenous administration of [^99mTc]-human serum albumin (0.25 mCi). Animals were then challenged with antigen either once or twice (2nd challenge 24 hours later). The response was a marked increase in vascular permeability as measured by extravasation of [^99mTc]-labelled human serum albumin into the conjunctiva.
To measure the inhibitory effect of Compounds I-IV, at varying times before antigen challenge, Compounds I-IV were administered either i.v. (1 mg/kg dosage) or topically (0.1% suspensions or_ solutions in 10 µl of 0.5% hydroxy ethylcellulose).

[1] = second challenge (24 hours later), topical 0.1% in 10 µl of 0.5% hydroxy ethylcellulose, pre-treat. time 5 min
[2] = single challenge, topical 0.1% in 10 µl of 0.5% hydroxy ethylcellulose, pre-treat. time 5 min

## CCCc1c(OCCCSc2ccc([C@H](O)[C@@H](C)CC(=O)O)cc2)ccc(C(C)=O)c1O (relative stereo) [II, (BS^*,YR^*)-4-(3-(4-acetyl-3-hydroxy-2-propyl-phenoxy)propylthio)-Y-hydroxy-B-methylbenzene-butanoic acid]
[1]
  % Inhib.: 30.3* %
[2]
  % Inhib.: 0%

## CCCc1c(OCCCS(=O)(=O)c2ccc(C(=O)CCC(=O)O)cc2)ccc(C(C)=O)c1O [Compound I, 4-((3-(4-acetyl-3-hydroxy-2-propylphenoxy)-propyl)sulfonyl)-Y-oxobenzene butanoic acid]
Second challenge (24 hours later), i.v. 1 mg/kg, pre-treat. time 2 min
  % Inhib.: 42.2** %
[1]
  % Inhib.: 37.0** %
Single challenge, i.v. 1 mg/kg, pre-treat. time 2 min
  % Inhib.: 1.5%
[2]
  % Inhib.: 1.7%

## COc1ccc2nc3cc(OC)c(=O)c(Br)c-3sc2c1 [III, 4-bromo-2,7-dimethoay-3H-phenothiazin-3-one]
[1]
  % Inhib.: 48.0* %
[2]
  % Inhib.: 38.8*** %

## OCc1ccccc1C=CCc1cc2c(cc1O)CCO2 [IV, 2,3-dihydro-6-(3-(2-hydroxymethyl)phenyl-2-propenyl)-5-benzofuranol]
Second challenge (24 hours later), topical 0.1% in 10 µl of 0.5% hydroxy ethylcellulose, pre-treat. time 60 min
  % Inhib.: 59.5* %
[2]
  % Inhib.: 28.8** %
